Earlier results in article PMC7060171, “Evaluation of Radiation dosimetry of ^99mTc-HYNIC-PSMA and imaging in prostate cancer” (Scientific Reports, 2020).

settings: not given

Row | SMILES | Effective dose
1 | O=C(O)CC[C@H](NC(=O)N[C@@H](CCCCNC(=O)c1ccc([18F])nc1)C(=O)O)C(=O)O [^18F-DCFPyL] | 1.39E-02 mSv/MBq
2 | O=C(O)CC[C@H](NC(=O)N[C@@H](CCCCNC(=O)[C@H](Cc1ccc2ccccc2c1)NC(=O)c1ccc(CNC(=O)[C@H](CCC(=O)O)NC(=O)[C@H](CCC(=O)O)NC(=O)c2ccc([18F])nc2)cc1)C(=O)O)C(=O)O [^18F-PSMA-1007] | 2.2E-02 mSv/MBq

Next, values leading:

Row | Effective dose | SMILES
3 | 2.36E-02 mSv/MBq | O=C([O-])CN(CCN(CC(=O)[O-])Cc1cc(CCC(=O)NCCCCCC(=O)NCCCC[C@H](NC(=O)N[C@@H](CCC(=O)O)C(=O)O)C(=O)O)ccc1[O-])Cc1cc(CCC(=O)O)ccc1[O-].[68Ga+3].[OH3+] [^68Ga-PSMA-11]
4 | 8.8E-03 mSv/MBq | O=C(O)CC[C@H](NC(=O)N[C@@H](CCC(=O)N[C@@H](CCCCN(Cc1nccn1CC(=O)N(CC(=O)O)CC(=O)O)Cc1nccn1CC(=O)N(CC(=O)O)CC(=O)O)C(=O)O)C(=O)O)C(=O)O.[99Tc+4].[CH-]=O.[CH-]=O.[CH-]=O.[Cl-] [^99mTc-MIP-1404]

same assay, conditions: conventional 99mTc-labelled radiopharmaceuticals used in SPECT/CT scans

Row | Effective dose | SMILES
5 | 5.68E-03 mSv/MBq | O=P(O)(O)CP(=O)(O)O (99mTc complex, metal not drawn) [MDP]
6 | 7.83E-03 mSv/MBq | [C-]#[N+]CC(C)(C)OC.[C-]#[N+]CC(C)(C)OC.[C-]#[N+]CC(C)(C)OC.[C-]#[N+]CC(C)(C)OC.[C-]#[N+]CC(C)(C)OC.[C-]#[N+]CC(C)(C)OC.[Tc] [MIBI]
